Experimental data taken from patent US20120208781A1, “AMINOGLYCOSIDE DOSING REGIMENS” (Achaogen, Inc., priority 2009, published 2012).

How the values were obtained:
E. coli = assay: MIC, further Brooklyn patient isolates: E. coli; assay type: cell-based; set-up: unit not given beside the values; settings: E. coli (n = 3071)
Experimental: (§1) Minimum inhibitory concentrations (MIC) were determined by reference Clinical and Laboratory Standards Institute (CLSI) broth microdilution methods per M7-A7 [2006]. Briefly, serial two-fold dilutions of Compound 1 and comparator AGs (together, “the test compounds”) were prepared at 2× concentration in appropriate diluent. The dilutions were mixed in 96-well assay plates with bacterial inoculum. Bacteria were suspended in sterile saline and added to each assay plate to obtain a final concentration of 5.5×10^5 CFU/mL. The plates were incubated at 35° C. for 20 hours in ambient air. […] After incubation, assay plates were read using a microtiter plate reader at 600 nm.
(§2) Further studies analyzed a greater number of unique patient isolates obtained from Brooklyn, N.Y. hospitals (including those species described above). These species included Acinetobacter, E. coli, Enterobacter, Klebsiella, and Pseudomonas.

Enterobacter = assay: MIC, further Brooklyn patient isolates: Enterobacter; assay type: cell-based; set-up: unit not given beside the values; settings: Enterobacter (n = 206)
Experimental: as §1, §2

rat kidney [1] = assay: Rat nephrotoxicity model: serum markers of GFR (BUN, serum creatinine); assay type: in vivo, Sprague-Dawley rats; settings: dose-response for BUN elevation
rat kidney [2] = assay: Rat nephrotoxicity model: kidney histopathology (H&E); assay type: in vivo, Sprague-Dawley rats; settings: rats, 14 d once-daily
Experimental: This rat nephrotoxicity study design used 14 days of once-daily dosing of aminoglycosides in adult Sprague-Dawley rats. Rats were allowed full access to food and water, and aminoglycosides were dosed subcutaneously at 1 mL/kg dosing volume, formulated in water. Nephrotoxicity was assessed by monitoring changes in serum markers of glomerular filtration rate (GFR), namely blood urea nitrogen (BUN) and serum creatinine. Microscopic examination of kidney slices after fixation and hematoxylin and eosin (H&E) staining was also utilized, scoring for tubular dilation, cellular casts, interstitial inflammation, and regenerative changes to the tubules.

SMILES | MIC50 (E. coli) | apparent relative nephrotoxicity (ranking) (rat kidney [1]) | Histopathology score (0 to 5 Scale): Casts (rat kidney [2]; 30 mg/kg) | Histopathology score (0 to 5 Scale): Dilation (rat kidney [2]; 30 mg/kg) | Histopathology score (0 to 5 Scale): Inflammation (rat kidney [2]; 30 mg/kg) | Histopathology score (0 to 5 Scale): Regeneration (rat kidney [2]; 30 mg/kg) | Histopathology score (0 to 5 Scale): Casts (rat kidney [2]; 100 mg/kg) | Histopathology score (0 to 5 Scale): Dilation (rat kidney [2]; 100 mg/kg) | Histopathology score (0 to 5 Scale): Inflammation (rat kidney [2]; 100 mg/kg) | Histopathology score (0 to 5 Scale): Regeneration (rat kidney [2]; 100 mg/kg) | other results
CO/N=C(\C(=O)N[C@@H]1C(=O)N2C(C(=O)[O-])=C(C[N+]3(C)CCCC3)CS[C@H]12)c1csc(N)n1 [FEP, cefepime] | ≦0.25 | – | – | – | – | – | – | – | – | – | MIC90 (E. coli): ≦0.25; MIC50 (Enterobacter): ≦0.25
NC[C@@H]1O[C@H](O[C@H]2[C@@H](O)[C@H](O[C@@H]3[C@@H](O)[C@H](N)C[C@H](N)[C@H]3O[C@H]3O[C@H](CO)[C@@H](O)[C@H](O)[C@H]3N)O[C@@H]2CO)[C@H](N)[C@@H](O)[C@@H]1O [Paromomycin, paromomycin] | – | Neomycin≈Gentamicin>Tobramycin>Apramycin≈Paromomycin>Amikacin | 0 +/− 0 | 1 +/− 1 | 1.4 +/− 0.9 | 1.4 +/− 0.5 | 2.6 +/− 0.5 | 3.2 +/− 0.4 | 3 +/− 0 | 4 +/− 0 | Histopathology score (0 to 5 Scale): Casts (rat kidney [2]; 300 mg/kg): 0 +/− 0; Histopathology score (0 to 5 Scale): Dilation (rat kidney [2]; 300 mg/kg): 0 +/− 0; Histopathology score (0 to 5 Scale): Inflammation (rat kidney [2]; 300 mg/kg): 0 +/− 0; Histopathology score (0 to 5 Scale): Regeneration (rat kidney [2]; 300 mg/kg): 0 +/− 0
CN[C@@H]1[C@@H](O[C@H]2O[C@H](CO)[C@@H](N)[C@H](O)[C@H]2O)OC2C[C@@H](N)[C@@H](O[C@H]3[C@H](O)[C@@H](O)[C@H](N)C[C@@H]3N)OC2[C@@H]1O (stereo partly shown) [Apramycin, apramycin] | – | Neomycin≈Gentamicin>Tobramycin>Apramycin≈Paromomycin>Amikacin | 0 +/− 0 | 0 +/− 0 | 0.6 +/− 0.5 | 0.6 +/− 0.5 | 1.4 +/− 0.5 | 0.6 +/− 0.5 | 2.4 +/− 0.5 | 2.4 +/− 0.5 | Histopathology score (0 to 5 Scale): Casts (rat kidney [2]; 3 mg/kg): 0 +/− 0; Histopathology score (0 to 5 Scale): Dilation (rat kidney [2]; 3 mg/kg): 0 +/− 0; Histopathology score (0 to 5 Scale): Inflammation (rat kidney [2]; 3 mg/kg): 0.4 +/− 0.5; Histopathology score (0 to 5 Scale): Regeneration (rat kidney [2]; 3 mg/kg): 0 +/− 0; Histopathology score (0 to 5 Scale): Casts (rat kidney [2]; 10 mg/kg): 0 +/− 0; Histopathology score (0 to 5 Scale): Dilation (rat kidney [2]; 10 mg/kg): 0 +/− 0; Histopathology score (0 to 5 Scale): Inflammation (rat kidney [2]; 10 mg/kg): 0.4 +/− 0.5; Histopathology score (0 to 5 Scale): Regeneration (rat kidney [2]; 10 mg/kg): 0.6 +/− 1.3
CC(C)(O/N=C(\C(=O)N[C@@H]1C(=O)N2C(C(=O)[O-])=C(C[n+]3ccccc3)CS[C@H]12)c1csc(N)n1)C(=O)O [CAZ, ceftazidime] | ≦0.25 | – | – | – | – | – | – | – | – | – | –
